Test results from publication PMC8580050, “Improvement of the antimicrobial potency, pharmacokinetic and pharmacodynamic properties of albicidin by incorporation of nitrogen atoms” (Chemical Science, 2021).
≈ marks a conversion by molar mass, not a printed value. Where two headings read alike, the source gives them in different places.

What was measured:
M. luteus DSM1790 = assay: MIC determination (broth microdilution); assay type: cell-based, Micrococcus luteus; settings: Micrococcus luteus, DSM1790
Protocol: (§1) 1.1.1 In vitro experiments
(§2) Determination of Minimal inhibitory concentrations (MIC)
(§3) Approved Standard M07-A9.1
(§4) CFU mL-1. […] Albicidin and […]
(§5) and serially diluted in DMSO (100%). […]
(§6) in 0.1 N HCL, respectively.
(§7) One row of each well plate served as a […]
(§8) sterility control (only MHB II-media). […]
(§9) adding 5 µL DMSO to several wells. […]
(§10) for growth inhibition by naked eye.
(§11) Microorganisms and Cell Cultures (DSMZ): […]

in vitro = settings: plasma, pH 7.4
Protocol: Determination of plasma stability
Human and murine plasma aliquots (Sigma-Aldrich, Taufkirchen, Germany) were thawed and subsequently centrifuged at 3000 rpm for 10 min at 4°C. Resulting supernatant was diluted in the same volume of phosphate buffer (pH 7.4) to obtain a plasma concentration of 50% (v/v). Stock solutions of […]
concentration of 20 µM (5% DMSO). Following incubation at 37°C ice-cold methanol containing 30% […]
were centrifuged at 4000 rpm for 20 min at 4°C and 100 µL of supernatant were directly transferred to a fresh MS-vial. Samples were analyzed by LC/MS-MS experiments. Quantification of remaining compounds was performed by an external calibration curve of standard solutions in the range of […]

[1] = test system: Salmonella Kentucky (ciprofloxacin susceptible clinical isolate); assay: MIC, extended panel; assay type: cell-based; settings: Salmonella enterica
Protocol: as §1, §2, §3, §4, §5, §6, §7, §8, §9, §10, §11
(§12) Dr. Werner (Robert-Koch-Institut, Wernigerode, Germany): […]

[2] = test system: E. coli (ciprofloxacin susceptible clinical isolate); assay: MIC, extended panel; assay type: cell-based; settings: Escherichia coli
Protocol: as §1, §2, §3, §4, §5, §6, §7, §8, §9, §10, §11, §12

[3] = test system: Salmonella Kentucky (ciprofloxacin resistant clinical isolate); assay: microbe, parasite or virus in culture; assay type: cell-based
Protocol: as §1, §2, §3, §4, §5, §6, §7, §8, §9, §10, §11, §12

[4] = test system: K. pneumoniae (ciprofloxacin resistant clinical isolate); assay: microbe, parasite or virus in culture; assay type: cell-based; settings: Klebsiella pneumoniae
Protocol: as §1, §2, §3, §4, §5, §6, §7, §8, §9, §10, §11, §12

[5] = test system: A. baumannii (ciprofloxacin resistant isolate); assay: microbe, parasite or virus in culture; assay type: cell-based, Acinetobacter baumannii
Protocol: as §1, §2, §3, §4, §5, §6, §7, §8, §9, §10, §11, §12
(§13) for the following 11 pathogenic isolates: […]

Tolerability assessment = assay type: in vivo, CD-1 mice; settings: intravenous injection, 50 mg kg^−1, mice
Protocol: Application volume of 5 ml kg-1 was used. Samples of K-EDTA blood were collected from each mouse […]
An individual blood cell count was performed for each sample. […]
performed with help of the grimace scale to monitor any changes in facial expression. […]
were sacrificed, and a macroscopic necropsy was performed to search for damaged organs. Data of blood cell count is given in Table S7 and reference values for measured blood cell parameters are given

[6] = test system: P. aeruginosa (ciprofloxacin resistant clinical isolate); assay: microbe, parasite or virus in culture; assay type: cell-based; settings: Pseudomonas aeruginosa
Protocol: as §1, §2, §3, §4, §5, §6, §7, §8, §9, §10, §11, §12, §13

[7] = test system: E. faecium (ciprofloxacin resistant clinical isolate); assay: microbe, parasite or virus in culture; assay type: cell-based; settings: Enterococcus faecium
Protocol: as §1, §2, §3, §4, §5, §6, §7, §8, §9, §10, §11, §12, §13

[8] = test system: S. aureus (ciprofloxacin resistant clinical isolate); assay: microbe, parasite or virus in culture; assay type: cell-based, Staphylococcus aureus
Protocol: as §1, §2, §3, §4, §5, §6, §7, §8, §9, §10, §11, §12, §13

[9] = test system: K. pneumoniae (ciprofloxacin susceptible clinical isolate); assay: MIC, extended panel; assay type: cell-based, Klebsiella pneumoniae
Protocol: as §1, §2, §3, §4, §5, §6, §7, §8, §9, §10, §11, §12

E. coli DSM 1116 = assay: MIC determination (broth microdilution); assay type: cell-based, Escherichia coli
Protocol: as §1, §2, §3, §4, §5, §6, §7, §8, §9, §10, §11

[10] = test system: S. aureus (ciprofloxacin susceptible clinical isolate); assay: MIC, extended panel; assay type: cell-based; settings: Staphylococcus aureus
Protocol: as §1, §2, §3, §4, §5, §6, §7, §8, §9, §10, §11, §12, §13

E. coli DNA gyrase = molecular target: T1, E. coli DNA gyrase (Escherichia coli, UniProt P0AES4+P0AES6); assay: E. coli gyrase supercoiling inhibition assay; assay type: biochemical; set-up: key: ↑: for stronger inhibition; ≈: for equal inhibition; ↓: for diminished inhibition compared to albicidin 1; settings: constant concentration of 45 nM, compared to albicidin 1
T1 construct: purchased inspiralis Limited, Norwich, UK
T1 sequence (P0AES4 whole entry, one chain of several): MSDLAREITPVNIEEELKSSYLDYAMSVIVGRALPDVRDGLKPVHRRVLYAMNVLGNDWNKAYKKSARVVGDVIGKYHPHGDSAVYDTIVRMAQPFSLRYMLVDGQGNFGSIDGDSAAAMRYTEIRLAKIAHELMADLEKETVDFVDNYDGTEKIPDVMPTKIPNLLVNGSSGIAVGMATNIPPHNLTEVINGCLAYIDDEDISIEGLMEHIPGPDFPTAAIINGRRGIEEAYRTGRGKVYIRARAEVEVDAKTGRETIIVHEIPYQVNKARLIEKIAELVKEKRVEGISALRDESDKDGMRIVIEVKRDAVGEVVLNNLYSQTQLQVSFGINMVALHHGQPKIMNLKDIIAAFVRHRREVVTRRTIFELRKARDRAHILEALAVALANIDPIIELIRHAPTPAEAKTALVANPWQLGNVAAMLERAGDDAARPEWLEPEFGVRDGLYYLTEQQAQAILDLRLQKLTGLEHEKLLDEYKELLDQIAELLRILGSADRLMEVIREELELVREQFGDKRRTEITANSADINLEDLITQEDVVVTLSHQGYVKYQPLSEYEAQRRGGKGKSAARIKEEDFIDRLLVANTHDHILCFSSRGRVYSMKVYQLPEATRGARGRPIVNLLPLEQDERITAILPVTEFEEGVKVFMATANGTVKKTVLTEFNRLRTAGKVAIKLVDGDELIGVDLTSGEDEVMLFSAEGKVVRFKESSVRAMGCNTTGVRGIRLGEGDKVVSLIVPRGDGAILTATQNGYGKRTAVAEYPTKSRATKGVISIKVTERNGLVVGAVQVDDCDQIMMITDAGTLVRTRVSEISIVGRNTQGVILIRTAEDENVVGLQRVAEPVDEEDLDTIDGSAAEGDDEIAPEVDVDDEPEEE
Protocol: Escherichia coli Gyrase Supercoiling Inhibition Assay
loaded on an agarose gel.
2-15. […] Addition of DNA
All derivatives were tested at a concentration of […]

[11] = test system: E. coli DSM 1116 + 50% Human Serum; assay: MIC determination in presence of 50% human serum; assay type: cell-based; settings: Escherichia coli, DSM1116
Excerpt: This investigation was completed by assessment of the antibacterial activity in presence of human plasma (50%) (Table 1), since high plasma protein binding can severely impair antibacterial activity and thus efficacy.
as §1, §2, §3, §4, §5, §6, §7, §8, §9, §10, §11

[12] = test system: E. coli knockout mutants from the KEIO collection (TolC, tsx); assay: MIC on E. coli knockout mutants (KEIO collection); assay type: cell-based; settings: for MIC: Escherichia coli
B. subtilis DSM 10 = assay: MIC determination (broth microdilution); assay type: cell-based; settings: Bacillus subtilis, DSM10
Protocol: as §1, §2, §3, §4, §5, §6, §7, §8, §9, §10, §11

E. coli BW25113 = assay: MIC determination (broth microdilution); assay type: cell-based; settings: Escherichia coli
Protocol: as §1, §2, §3, §4, §5, §6, §7, §8, §9, §10, §11

M. phlei DSM 750 = assay: MIC determination (broth microdilution); assay type: cell-based, Mycobacterium phlei; settings: Mycolicibacterium phlei, DSM750
Protocol: as §1, §2, §3, §4, §5, §6, §7, §8, §9, §10

[13] = Pharmacokinetic study, i.v.
[14] = test system: E. faecium (ciprofloxacin susceptible clinical isolate); assay: microbe, parasite or virus in culture; settings: Enterococcus faecium
[15] = test system: E. coli (ciprofloxacin resistant clinical isolate); assay: microbe, parasite or virus in culture; assay type: cell-based, Escherichia coli
Protocol: as §1, §2, §3, §4, §5, §6, §7, §8, §9, §10, §11, §12

[16] = test system: fluoroquinolone-resistant (FQR) E. coli isolate; assay: Murine septicaemia infection model; assay type: in vivo, CD-1 mice
Protocol: From a panel of clinical ESKAPE isolates one fluoroquinolone (FQR)-resistant E. coli strain was selected for the preparation of the infection model (Table S3 ^†). […] Bacterial payload (CFU) was measured from spleens and kidneys and compared to untreated control animals.
Pharmacokinetic calculations
1.1.3 Murine septicemia infection model
For in vivo infections study female CD-1 mice (RjOrl:SWISS, 6 weeks old) were purchased from Janvier Labs (Le Genest Saint Isle, France). The animals were allowed to acclimatize for at least seven days before the start of experiments. Group-Housing was realized in a pathogen-free, temperature- […]
and water ad libitum throughout the study. All experimental procedures were approved by and conducted in accordance to the institutional guidelines. […]
septicemia infection model. Following overnight incubation in Brain Heart infusion at 37°C, the strain was spin down at 2.500 rpm for 10 min. Immediately before use, bacteria pellet was resuspended in […]
For infection procedure, mice were briefly anesthetized with continuous inhalation of isoflurane.
100 µl of bacterial suspension were intravenously administered. At least nine animals were used for each of the following therapeutic groups:
- Untreated but infected animals: control group (PBS)
- Drug candidate, dose 1 group (6 mg kg-1);
- Drug candidate, dose 2 group (17 mg kg-1). […]
respectively. Animals were monitored for clinical signs throughout the whole study using a 4-point body condition score analyzing weight loss, respiratory distress, hampered mobility and hunched posture. Animals were euthanized after 24 hours of infection. Spleen and kidneys from each animal were removed, weighed, and homogenized in 2 mL of PBS and used for quantitative cultures on agar

S. Typhimurium TA100 = assay: MIC determination (broth microdilution); assay type: cell-based, Salmonella typhimurium; settings: Salmonella enterica; S. Typhimurium TA100; read-out: MIC
Protocol: as §1, §2, §3, §4, §5, §6, §7, §8, §9, §10, §11

[17] = test system: P. aeruginosa (ciprofloxacin susceptible clinical isolate); assay: MIC, extended panel; assay type: cell-based, Pseudomonas aeruginosa
Protocol: as §1, §2, §3, §4, §5, §6, §7, §8, §9, §10, §11, §12, §13

[18] = 50 mg kg-1 i.v., 2-compartment analysis

For `COc1c(NC(=O)c2ccc(NC(=O)c3ccc(NC(=O)[C@H](Cc4c[nH]nn4)NC(=O)c4ccc(NC(=O)/C(C)=C/c5ccc(O)cc5)cc4)cn3)c(OC)c2O)ccc(C(=O)O)c1O` [Compound 7], the MIC (M. luteus DSM1790) was 0.031 µg/mL (≈ 0.035 µM), the half-life at 20 µM (in vitro; human) was over 240 min and the half-life at 20 µM (in vitro; mouse) was 95 min. For the same molecule, the MIC [1] was 0.016 µg/mL (≈ 0.0181 µM), the MIC [2] was 0.016 µg/mL (≈ 0.0181 µM) and the “activity, times higher compared to 2” value ([3]; CIP-resistant Salmonella Kentucky) was 8 times. For the same molecule, the MIC ([3]; Salmonella enterica) was 0.016 µg/mL (≈ 0.0181 µM), the MIC [4] was 64 µg/mL (≈ 72.2 µM) and the MIC ([5]; Acinetobacter baumannii) was 0.016 µg/mL (≈ 0.0181 µM). The “activity, times higher compared to 2” value ([5]; CIP-resistant A. baumannii) was 125 times, the “adverse effects or histopathological observations (tolerability study)” value (Tolerability assessment) was “did not show any adverse effects or histopathological observations” and the MIC [6] was 2 µg/mL (≈ 2.26 µM). The MIC [7] was 32 µg/mL (≈ 36.1 µM), the “activity, times higher compared to 2” value ([8]; CIP-resistant S. aureus) was 8 times and the MIC ([8]; Staphylococcus aureus) was 0.063 µg/mL (≈ 0.0711 µM). The “activity, times higher than 2” value ([9]; CIP sensitive K. pneumonia) was 8 times, the MIC ([9]; Klebsiella pneumoniae) was 8 µg/mL (≈ 9.03 µM) and the “MIC for E. coli” value (E. coli DSM 1116; E. coli, strain not given) was 16 ng/mL. For the same molecule, the MIC (E. coli DSM 1116; Escherichia coli, DSM1116) was at most 0.016 µg/mL, the MIC [10] was 0.016 µg/mL (≈ 0.0181 µM) and the “E. coli gyrase inhibition” value (E. coli DNA gyrase) was “↑”. For the same molecule, the MIC [11] was 0.5 µg/mL, the MIC ([12]; read-out: antimicrobial activity (MIC), TolC (efflux transporter) knockout mutation) was at most 0.016 µg/mL and the MIC ([12]; read-out: antimicrobial activity (MIC), before TolC knockout (parent strain)) was 0.063 µg/mL (≈ 0.0711 µM). For the same molecule, the “increase of efficacy, factor” value ([12]; TolC knockout mutation) was 4, the decrease in activity ([12]; knockout mutation of the tsx gene) was 10 fold and the MIC (B. subtilis DSM 10) was 0.063 µg/mL (≈ 0.0711 µM). The MIC (E. coli BW25113) was at most 0.016 µg/mL, the MIC (M. phlei DSM 750) was 0.25 µg/mL (≈ 0.282 µM) and the “T1/2 kel, mean” value [13, 18] was 1.4 h. For the same molecule, the “T1/2 λz, mean” value [13, 18] was 8.3 h, the “plasma level as multiple of MIC for E. coli” value ([13]; 50 mg kg^−1 i.v., after 24 h) was “higher than 5 times MIC” and the MIC [14] was 0.25 µg/mL (≈ 0.282 µM). The “activity, times higher compared to 2” value ([15]; CIP-resistant E. coli) was 4 times, the MIC ([15]; Escherichia coli) was 0.016 µg/mL (≈ 0.0181 µM) and the “CFU reduction in kidney” value ([16]; 17 mg kg^−1 applied twice) was over 2 log units. For the same molecule, the “CFU reduction in spleen” value ([16]; 17 mg kg^−1 applied twice) was “more than 3 log units”, the survival ([16]; 17 mg kg^−1 applied twice, lethal dose of FQR clinical isolate E. coli) was “all mice survived” and the “survival after 24 h” value ([16]; 6 and 17 mg kg^−1 i.v. twice, lethal dose of FQR resistant E. coli) was “survived”. The “reduction of bacterial counts in kidneys” value ([16]; both tested doses (6 and 17 mg kg^−1 i.v. twice), versus untreated control) was over 3 log 10 CFU g^−1, the MIC (S. Typhimurium TA100) was at most 0.016 µg/mL and the “activity, times higher than 2” value ([17]; CIP sensitive P. aeruginosa) was 4 times. The MIC ([17]; Pseudomonas aeruginosa) was 1 µg/mL (≈ 1.13 µM).
